Results published in article PMC7461649 (Journal of medicinal chemistry, 2020).
Where two headings read alike, the source gives them in different places.

Key:
[1] = target: TnmH (Streptomyces sp. CB03234); assay: SEC
TnmH [2] = target: T1, TnmH (Streptomyces sp. CB03234, UniProt A0A125SA05); assay: biochemical
TnmH [3] = target: T1, TnmH; details: saturating SAM (1 mM)

For TnmH (enzyme), the stoichiometry N [1] was 2.
In the case of `C[S+](CC[C@H](N)C(=O)O)C[C@H]1O[C@@H](n2cnc3c(N)ncnc32)[C@H](O)[C@@H]1O` (stereo partly shown) [SAM], the Km (TnmH [2]) is reported as 62 ± 4.8 µM.
In the case of `COC(=O)C(O)C(C)(O)[C@@]12OC13c1cc(O)c4c(c1N[C@H]2C#C/C=C\C#C[C@H]3O)C(=O)c1c(ccc(O)c1O)C4=O` (stereo partly shown) [compound 11, TNM C], the Km (TnmH [3]; 11 varied 7.8 to 500 μM, C-7 hydroxyl methylation to 13) is reported as 31.1 ± 4.1 µM.
Work on TNM F [compound 10] yielded a Km (TnmH [3]; 10 varied 7.8 to 500 μM, C-7 hydroxyl methylation to 12) of 11.7 ± 1.2 µM.
